In one assay the test system is S. aureus PCM 2054. The experiment in a line: MIC, broth microdilution. Format: cell-based, Staphylococcus aureus. The following applies: S. aureus PCM 2054, standard Mueller-Hinton broth, 24 h. The source says: (§1) Escherichia coli (PCM 2057 = ATCC 25922), Staphylococcus aureus (PCM 2054 = ATCC 25923), Staphylococcus epidermidis (PCM 2118 = ATCC 14990), Bacillus subtilis (PCM 2224 = ATCC 9799), Bacillus cereus (PCM 482 = ATCC 10702) and Pseudomonas aeruginosa (PCM 499 = ATCC 10145) were obtained from the Polish Collection of Microorganisms. Fungi strains Candida albicans (CCM 8186 = CNTC 49/64), Candida glabrata (CCM 8270 = ATCC 90030), Candida parapsilosis (CCM 8260 = ATCC 22019) and Candida krusei (CCM 8271 = ATCC 6258) were acquired from the Czech Collection of Microorganisms. S. aureus USA300 (wild type strain), the reference strain of Klebsiella pneumoniae (ATCC 13883) and clinical isolates of Pseudomonas aeruginosa (PA1, PA2) collected from nonrelated patients admitted to the Stefan Zeromski Specialist Municipal Hospital in Krakow (Poland) were kindly provided by the research group of the Department of Microbiology, Faculty of Biochemistry, Biophysics and Biotechnology, Jagiellonian University, Krakow, Poland.
(§2) Luria-Bertani broth (LB) and Sabouraud Dextrose broth (SB) (Biocorp, Poland) were used for cultivation of bacteria and fungi strains, respectively. The antimicrobial activity of the peptides were analyzed through determination of MIC (minimal inhibitory concentration) parameters according to Clinical and Laboratory Standards (CLSI) guidelines developed for aerobic bacteria and yeasts, respectively. Mueller-Hinton broth (MHB) was used as the working medium for all bacterial strains, while in the case of fungi, RPMI-1640 (with L-glutamine, without sodium bicarbonate) growth medium buffered with MOPS (morpholinepropanesulfonic acid) and supplemented with 2% glucose was used. Inoculum was prepared from freshly grown cultures of microorganisms at their exponential phase of growth. […] Plates were then incubated for 24 h at 37 °C in the case of bacteria and at 35 °C in the case of fungi. After that time, absorbance was read at 590 nm with a Perkin Elmer plate reader. Cultures without peptide were treated as positive control, while uninoculated media were defined as negative control. All measurements were run at least in triplicate.

The test system of assay [1] is S. aureus (PCM 2054) biofilm. The experiment in a line: Biofilm inhibition assay (MTT). It counts as cell-based, Staphylococcus aureus. The following applies: S. aureus biofilm development, 24 h post-inoculation. How it is done:
(§3) In the case of bacteria, an overnight culture of S. aureus in Tryptic Soy Broth (TSB) supplemented with 2% glucose (TSB/+G) was used to prepare inoculum for the experiments. Briefly, 5 mL of 24 h culture was centrifuged at 5000× g, washed with sterile PBS and suspended in a fresh 2 × concentrated TSB/+G. In the case of yeasts, the overnight culture of C. albicans in Sabouraud dextrose broth (SB) was used for inoculum preparation. Similar to above, 5 mL of 24 h culture was centrifuged, washed with PBS and then suspended in sterile 2 × concentrated RPMI-1640 medium (with L-glutamine, without sodium bicarbonate) supplemented with 2% glucose (RPMI-1640/+G). In both cases, the cell concentration of the inoculum was about 1 × 10^7 cells per ml.
(§4) For the determination of the inhibitory concentration that reduced biofilm development by 50% (BIC50^, expressed in µg/mL), 100 µL inoculum in 2 × concentrated RPMI-1640/+G medium (in the case of C. albicans) or 2 x concentrated TSB/+G broth (in the case of S. aureus) was transferred to each well of 96-well plates containing 100 µL of serially diluted in water tested compounds. The final concentrations of the compounds were the same as those used in MIC determination studies. The 96-well plates were then incubated for 24 h at 37 °C and 35 °C in the case of bacteria and fungi, respectively. Viability of the microorganisms in the presence of the tested compounds was analyzed by means of MTT assay.
(§5) The reduction in biofilm viability was analyzed by means of MTT assay. Briefly, 20 μL of MTT solution (5 mg/mL in PBS) was added to prewashed wells with exchanged medium (180 μL of fresh medium) wells containing bacterial/yeast biofilms. Plates were then incubated in the dark for the next 3 h at 37 °C. After that time, the medium was replaced with 6 mM HCl in isopropanol and, when the reduced MTT was fully dissolved, the plates were read at 570 nm. Activity against fully developed 24 h old biofilm was described as biofilm eradication concentration (BEC50 expressed in µg/mL), which corresponded to the concentration of the compound able to reduce 50% of biofilm viability compared with the growth control.

For a further assay, the system named is C.glabrata CCM 8270. The experiment in a line: MIC, broth microdilution. Particulars: for MIC100: C.glabrata CCM 8270, 24 h. It counts as cell-based, Candida glabrata.
Text: as §1, §2
For orientation: Dilution methods test growth across graded concentrations, often in twofold steps.

The next assay relates to C.parapsilosis CCM 8260. The experiment in a line: MIC, broth microdilution. Format: cell-based, Candida parapsilosis. Particulars: C.parapsilosis CCM 8260, 24 h.
Text: as §1, §2

Assay [2] concerns S. aureus (PCM 2054) biofilm. The experiment in a line: Biofilm eradication assay, pre-formed 24 h old biofilm (MTT). Format: cell-based, Staphylococcus aureus. Particulars: S. aureus pre-formed 24 h old biofilm, 24 h treatment. How it is done: Biofilm eradication activity of the synthesized compounds was analyzed against 24 h old biofilms of S. aureus and C. albicans. In the case of bacteria, an overnight culture of S. aureus in Tryptic Soy Broth (TSB) supplemented with 2% glucose (TSB/+G) was used to prepare inoculum for the experiments. Briefly, 5 mL of 24 h culture was centrifuged at 5000× g, washed with sterile PBS and suspended in a fresh TSB/+G. The bacterial suspension was then diluted in a fresh growth medium to obtain the final concentration of colonies of about 1 × 10^7 cells per ml. Further, 200 μL of the inoculum was transferred to each well of 96-well sterile polystyrene flat-bottomed plate, and bacteria were then incubated for the next 24 h without shaking at 37 °C.
After that, each well of the plates containing bacterial or fungi biofilm was washed three times with PBS in order to remove all non-adherent cells. Then, peptide solutions of 200 µL ranging from 50 to 0,39 µg/mL prepared in TSB +/G in the case of experiments on S. aureus biofilm, and (RPMI-1640/+G) in the case of C. alibcans, were prepared and transferred into the microtiter plates. After the addition of the peptides, the experiments were continued for the next 24 h.
as §5

The next assay relates to E. coli PCM 2057. The experiment in a line: MIC, broth microdilution. Format: cell-based, Escherichia coli. Particulars: E. coli PCM 2057, 24 h.
Text: as §1, §2

For another assay, the system named is P. aeruginosa PCM 499. The experiment in a line: MIC, broth microdilution. Format: cell-based, Pseudomonas aeruginosa. The following applies: P. aeruginosa PCM 499, 24 h.
Text: as §1, §2

In another assay the test system is S. epidermidis PCM 2118. The experiment in a line: MIC, broth microdilution. It counts as cell-based, Staphylococcus epidermidis. Particulars: S. epidermidis PCM 2118, 24 h.
Text: as §1, §2

The subject of a further assay is B. subtilis PCM 2224. The experiment in a line: MIC, broth microdilution. The following applies: B. subtilis PCM 2224, 24 h. It counts as cell-based, Bacillus subtilis.
Text: as §1, §2

In assay [3] the test system is C. albicans (CCM 8186) biofilm. The experiment in a line: Biofilm inhibition assay (MTT). Format: cell-based, Candida albicans. The following applies: C. albicans biofilm development, 24 h post-inoculation. As for the experimental part: as §3, §4, §5

Molecules are shown by their SMILES. Converted amounts (≈) assume the structure as drawn. Where a SMILES comes first, the peptide text is derived from it. [ ]: non-standard residue; d: D form. The star is where a group is joined. Lauroyl = CCCCCCCCCCCC(=O)*; Pentanoyl = CCCCC(=O)*; AEEA = NCCOCCOCC(=O)O; βAla = NCCC(=O)O

Here are results for three compounds from publication PMC8269107, “Lipidation of Temporin-1CEb Derivatives as a Tool for Activity Improvement, Pros and Cons of the Approach” (International Journal of Molecular Sciences, 2021).

Take `CCCCC(=O)NCCC(=O)N[C@@H](Cc1c[nH]cn1)C(=O)NCCOCCOCC(=O)N[C@H](C(=O)N[C@@H](CCCCN)C(=O)N[C@@H](CCCCN)C(=O)N[C@H](C(=O)N[C@@H](CC(C)C)C(=O)N[C@@H](CO)C(=O)N[C@@H](CCCCN)C(=O)N[C@H](C(=O)N[C@@H](CCCCN)C(=O)N[C@@H](CCCCN)C(=O)N[C@@H](CC(C)C)C(=O)N[C@@H](CC(C)C)C(N)=O)[C@@H](C)CC)[C@@H](C)CC)[C@@H](C)CC` [C5-CAR-PEG-DK5] ({Pentanoyl-βAla}-H[AEEA]IKKILSKIKKLL-NH2): the MIC100 is greater than 50 mg/L in the assay on S. aureus PCM 2054; greater than 50 mg/L with C.glabrata CCM 8270; 50 mg/L (≈ 26.9 µM) against C.parapsilosis CCM 8260; greater than 50 mg/L in the assay with E. coli PCM 2057; greater than 50 mg/L against P. aeruginosa PCM 499; 6.25 mg/L (≈ 3.36 µM) in the assay with S. epidermidis PCM 2118. This compound had an MIC100 in the assay with B. subtilis PCM 2224 of 6.25 mg/L (≈ 3.36 µM). The BIC50 in [1] and in assay [3] was greater than 50 µg/mL throughout. This compound also yielded a BEC50 in assay [2] greater than 50 µg/mL.
As for `CC[C@H](C)[C@H](NC(=O)COCCOCCNC(=O)[C@H](Cc1c[nH]cn1)NC(=O)CCN)C(=O)N[C@@H](CCCCN)C(=O)N[C@@H](CCCCN)C(=O)N[C@H](C(=O)N[C@@H](CC(C)C)C(=O)N[C@@H](CO)C(=O)N[C@@H](CCCCN)C(=O)N[C@H](C(=O)N[C@@H](CCCCN)C(=O)N[C@@H](CCCCN)C(=O)N[C@@H](CC(C)C)C(=O)N[C@@H](CC(C)C)C(N)=O)[C@@H](C)CC)[C@@H](C)CC` [CAR-PEG-DK5] (H-[βAla]H[AEEA]IKKILSKIKKLL-NH2; N-terminus and C-terminus assumed), the MIC100 in the assay on S. aureus PCM 2054 was greater than 50 mg/L; with C.glabrata CCM 8270 it was 62.5 mg/L (≈ 35.2 µM); in the assay on C.parapsilosis CCM 8260, 31.3 mg/L (≈ 17.6 µM); with E. coli PCM 2057, greater than 50 mg/L; with P. aeruginosa PCM 499 it was 50 mg/L (≈ 28.1 µM); against S. epidermidis PCM 2118, 3.9 mg/L (≈ 2.19 µM). For the same compound, the MIC100 in the assay on B. subtilis PCM 2224 worked out at 3.9 mg/L (≈ 2.19 µM). Also, the BIC50 is on record as greater than 50 µg/mL in assay [1] and 50 µg/mL in assay [3]. Also, the BEC50 in [2] is greater than 50 µg/mL.
As for `CCCCCCCCCCCC(=O)N[C@H](C(=O)N[C@@H](CCCCN)C(=O)N[C@@H](CCCCN)C(=O)N[C@H](C(=O)N[C@@H](CC(C)C)C(=O)N[C@@H](CO)C(=O)N[C@@H](CCCCN)C(=O)N[C@H](C(=O)N[C@@H](CCCCN)C(=O)N[C@@H](CCCCN)C(=O)N[C@@H](CC(C)C)C(=O)N[C@@H](CC(C)C)C(N)=O)[C@@H](C)CC)[C@@H](C)CC)[C@@H](C)CC` [Compound C12-DK5] (Lauroyl-IKKILSKIKKLL-NH2), the MIC100 in the assay on S. aureus PCM 2054 came out at 6.25 mg/L (≈ 3.89 µM); against C.glabrata CCM 8270, 3.13 mg/L (≈ 1.95 µM); against C.parapsilosis CCM 8260 it was 3.13 mg/L (≈ 1.95 µM); against E. coli PCM 2057 it was 12.5 mg/L (≈ 7.78 µM); against P. aeruginosa PCM 499, 12.5 mg/L (≈ 7.78 µM); in the assay on S. epidermidis PCM 2118, 0.78 mg/L (≈ 0.486 µM). Also, in the assay on B. subtilis PCM 2224, the MIC100 is 0.78 mg/L (≈ 0.486 µM). Besides, the BIC50 in assay [1] and in assay [3] was 6.25 µg/mL throughout. For the same compound, the “fold improved activity in comparison to the parent DK5” value with C.glabrata CCM 8270 (C. glabrata, MIC) was roughly 20 fold. Moreover, the BEC50 in assay [2] came out at 6.25 µg/mL.
